# In patent US9611267B2, “Substituted tricyclic compounds as FGFR inhibitors” (Incyte Corporation, priority 2012, dated 2017):
# What was measured:
# Type in all cases: biochemical
# FGFR2 = FGFR2 (Homo sapiens (Human), UniProt P21802); assay: FGFR enzymatic assay (FRET peptide phosphorylation), FGFR2; conditions: FGFR2 enzyme 0.01 nM, ATP 100 μM
# How it was run: (§1)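 Recombinant kinase was pre-incubated 5–10 min with serially diluted inhibitor in HEPES buffer (10 mM MgCl2, 5 mM DTT, pH 7.5; buffer described for FGFR3). Peptide phosphorylation ran 1 h at 25 °C and was detected by FRET after ~1 h equilibration. IC50 values come from variable-slope sigmoidal fits.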
# FGFR1 = FGFR1 (Homo sapiens (Human), UniProt P11362); assay: FGFR enzymatic assay (FRET peptide phosphorylation), FGFR1; conditions: FGFR1 enzyme 0.02 nM, ATP 210 μM
# How it was run: as §1
# FGFR3 = FGFR3 (Homo sapiens (Human), UniProt P22607); assay: FGFR enzymatic assay (FRET peptide phosphorylation), FGFR3; conditions: FGFR3 enzyme (Millipore), ATP 140 μM
# How it was run: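 FRET assay of peptide phosphorylation by FGFR3 in HEPES pH 7.5 buffer with MgCl2, EGTA, Tween-20 and DTT. Enzyme was pre-incubated 5-10 min with compound, and the reaction ran 1 hr at 25° C. IC50 came from a variable-slope sigmoidal fit.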
# FGFR3, sequence (P22607 23-806): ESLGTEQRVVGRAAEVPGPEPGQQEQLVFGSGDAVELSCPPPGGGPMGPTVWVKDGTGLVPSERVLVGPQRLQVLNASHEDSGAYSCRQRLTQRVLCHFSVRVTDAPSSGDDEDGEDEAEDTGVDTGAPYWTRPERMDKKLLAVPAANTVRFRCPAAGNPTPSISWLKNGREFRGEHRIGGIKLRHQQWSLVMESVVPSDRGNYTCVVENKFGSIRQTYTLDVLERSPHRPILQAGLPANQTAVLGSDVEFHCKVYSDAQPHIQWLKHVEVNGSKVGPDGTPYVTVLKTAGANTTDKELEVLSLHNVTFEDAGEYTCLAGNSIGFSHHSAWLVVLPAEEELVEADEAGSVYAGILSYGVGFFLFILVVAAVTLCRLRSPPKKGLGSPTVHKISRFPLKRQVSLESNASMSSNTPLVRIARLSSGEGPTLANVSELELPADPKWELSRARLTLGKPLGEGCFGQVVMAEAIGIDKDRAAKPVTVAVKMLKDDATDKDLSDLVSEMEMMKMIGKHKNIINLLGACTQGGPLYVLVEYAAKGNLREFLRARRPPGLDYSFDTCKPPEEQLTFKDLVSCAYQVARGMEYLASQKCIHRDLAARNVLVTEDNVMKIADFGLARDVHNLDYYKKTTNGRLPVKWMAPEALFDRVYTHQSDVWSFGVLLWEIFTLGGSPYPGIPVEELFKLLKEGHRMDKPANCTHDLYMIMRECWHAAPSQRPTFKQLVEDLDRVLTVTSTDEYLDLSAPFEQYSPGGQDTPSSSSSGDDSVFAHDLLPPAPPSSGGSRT
# FGFR2, sequence (P21802 22-821): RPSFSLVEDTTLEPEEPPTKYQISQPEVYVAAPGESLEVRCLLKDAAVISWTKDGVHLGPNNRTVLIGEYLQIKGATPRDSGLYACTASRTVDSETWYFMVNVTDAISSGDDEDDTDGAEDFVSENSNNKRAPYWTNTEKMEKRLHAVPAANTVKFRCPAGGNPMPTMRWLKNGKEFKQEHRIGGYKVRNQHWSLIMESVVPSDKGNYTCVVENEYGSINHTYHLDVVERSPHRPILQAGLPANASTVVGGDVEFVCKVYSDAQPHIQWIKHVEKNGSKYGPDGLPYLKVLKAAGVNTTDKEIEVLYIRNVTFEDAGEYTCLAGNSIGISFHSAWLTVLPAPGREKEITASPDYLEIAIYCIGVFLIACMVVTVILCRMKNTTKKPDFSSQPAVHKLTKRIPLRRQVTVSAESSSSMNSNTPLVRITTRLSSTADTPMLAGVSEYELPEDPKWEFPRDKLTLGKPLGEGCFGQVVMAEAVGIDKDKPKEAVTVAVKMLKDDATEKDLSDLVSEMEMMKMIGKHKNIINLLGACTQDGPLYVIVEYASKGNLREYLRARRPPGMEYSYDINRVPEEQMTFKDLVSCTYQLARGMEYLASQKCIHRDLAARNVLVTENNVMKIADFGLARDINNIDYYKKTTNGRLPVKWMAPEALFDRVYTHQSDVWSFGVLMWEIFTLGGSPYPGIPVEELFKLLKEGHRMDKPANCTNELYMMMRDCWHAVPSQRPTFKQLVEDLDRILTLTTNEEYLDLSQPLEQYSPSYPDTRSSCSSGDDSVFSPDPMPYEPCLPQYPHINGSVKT
# FGFR1, sequence (P11362 22-822): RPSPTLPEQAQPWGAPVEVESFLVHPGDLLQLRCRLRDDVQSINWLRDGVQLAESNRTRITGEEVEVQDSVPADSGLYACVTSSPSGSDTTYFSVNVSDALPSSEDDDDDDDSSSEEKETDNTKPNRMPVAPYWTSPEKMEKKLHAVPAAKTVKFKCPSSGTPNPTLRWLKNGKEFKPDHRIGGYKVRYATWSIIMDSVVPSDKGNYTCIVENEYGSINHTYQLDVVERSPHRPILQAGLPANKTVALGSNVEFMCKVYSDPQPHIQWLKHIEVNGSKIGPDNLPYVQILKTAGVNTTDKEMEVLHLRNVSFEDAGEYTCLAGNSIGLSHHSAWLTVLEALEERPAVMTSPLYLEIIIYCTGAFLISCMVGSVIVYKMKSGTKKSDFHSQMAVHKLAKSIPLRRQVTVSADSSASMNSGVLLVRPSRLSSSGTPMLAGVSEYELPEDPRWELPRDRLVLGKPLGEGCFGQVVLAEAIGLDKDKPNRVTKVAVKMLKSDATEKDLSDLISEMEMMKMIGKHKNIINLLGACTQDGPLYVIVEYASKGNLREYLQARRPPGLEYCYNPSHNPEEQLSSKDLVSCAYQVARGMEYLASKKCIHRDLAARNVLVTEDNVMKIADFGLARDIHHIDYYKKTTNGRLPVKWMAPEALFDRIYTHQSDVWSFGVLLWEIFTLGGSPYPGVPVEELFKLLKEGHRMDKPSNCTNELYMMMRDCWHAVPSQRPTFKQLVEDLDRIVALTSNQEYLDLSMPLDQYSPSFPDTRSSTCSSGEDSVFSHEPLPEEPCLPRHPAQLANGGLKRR
SMILES,IC50 (FGFR2),IC50 (FGFR1),IC50 (FGFR3)
"COc1cc(OC)c(F)c(N2Cc3cnc4c(c3N(CC3CC3)C2=O)CC(=O)N4)c1F [Example 50, 1-(Cyclopropylmethyl)-3-(2,6-difluoro-3,5-dimethoxyphenyl)-3,4,7,9-tetrahydro-1H-pyrrolo[3′,2′:5,6]pyrido[4,3-d]pyrimidine-2,8-dione]",< 0.1 µM,< 0.1 µM,< 0.1 µM
"COc1cc(OC)c(F)c(N2Cc3cnc4[nH]ncc4c3N(c3cccnc3)C2=O)c1F [Example 94, 3-(2,6-difluoro-3,5-dimethoxyphenyl)-1-pyridin-3-yl-1,3,4,7-tetrahydro-2H-pyrazolo[4′,3′:5,6]pyrido[4,3-d]pyrimidin-2-one]",< 0.1 µM,< 0.1 µM,< 0.1 µM
"COc1cc(OC)c(F)c(N2Cc3cnc4[nH]c(CCN5CCOCC5)cc4c3N(C3CCC3)C2=O)c1F [Example 183, 1-cyclobutyl-3-(2,6-difluoro-3,5-dimethoxyphenyl)-8-(2-morpholin-4-ylethyl)-1,3,4,7-tetrahydro-2H-pyrrolo[3′,2′:5,6]pyrido[4,3-d]pyrimidin-2-one]",< 0.1 µM,< 0.1 µM,< 0.1 µM
"COc1cc(OC)c(F)c(N2Cc3cnc4[nH]c(C(=O)N5CCN(C)CC5)cc4c3N(C)C2=O)c1 [Example 30, 3-(2-Fluoro-3,5-dimethoxyphenyl)-1-methyl-8-[(4-methylpiperazin-1-yl)carbonyl]-1,3,4,7-tetrahydro-2H-pyrrolo[3′,2′:5,6]pyrido[4,3-d]pyrimidin-2-one]",< 0.1 µM,< 0.1 µM,< 0.1 µM
"CCN1C(=O)N(c2c(F)c(OC)cc(OC)c2Cl)Cc2cnc3[nH]c(CN4CCOCC4)cc3c21 [Example 141, 3-(2-chloro-6-fluoro-3,5-dimethoxyphenyl)-1-ethyl-8-(morpholin-4-ylmethyl)-1,3,4,7-tetrahydro-2H-pyrrolo[3′,2′:5,6]pyrido[4,3-d]pyrimidin-2-one]",< 0.1 µM,< 0.1 µM,< 0.1 µM
"COc1cc(OC)c(F)c(N2Cc3cnc4[nH]c(CN5CCOCC5)cc4c3N(C)C2=O)c1F [Example 110, 3-(2,6-difluoro-3,5-dimethoxyphenyl)-1-methyl-8-(morpholin-4-ylmethyl)-1,3,4,7-tetrahydro-2H-pyrrolo[3′,2′:5,6]pyrido[4,3-d]pyrimidin-2-one]",< 0.1 µM,< 0.1 µM,< 0.1 µM
"COc1cc(OC)c(F)c(N2Cc3cnc4[nH]ccc4c3N(Cc3ccccn3)C2=O)c1F [Example 78, 3-(2,6-difluoro-3,5-dimethoxyphenyl)-1-(pyridin-2-ylmethyl)-1,3,4,7-tetrahydro-2H-pyrrolo[3′,2′:5,6]pyrido[4,3-d]pyrimidin-2-one]",< 0.1 µM,< 0.1 µM,< 0.1 µM
"COc1cc(OC)c(F)c(N2Cc3cnc4[nH]ncc4c3N(C[C@@H]3CCOC3)C2=O)c1F [Example 179, 3-(2,6-difluoro-3,5-dimethoxyphenyl)-1-[(3S)-tetrahydrofuran-3-ylmethyl]-1,3,4,7-tetrahydro-2H-pyrazolo[4′,3′:5,6]pyrido[4,3-d]pyrimidin-2-one]",< 0.1 µM,< 0.1 µM,< 0.1 µM
"COc1cc(OC)c(F)c(N2Cc3cnc4[nH]c(CN5CCN(C)CC5)cc4c3N(c3cnn(C)c3)C2=O)c1F [Example 204, 3-(2,6-difluoro-3,5-dimethoxyphenyl)-8-[(4-methylpiperazin-1-yl)methyl]-1-(1-methyl-1H-pyrazol-4-yl)-1,3,4,7-tetrahydro-2H-pyrrolo[3′,2′:5,6]pyrido[4,3-d]pyrimidin-2-one]",< 0.1 µM,< 0.1 µM,< 0.1 µM
"COc1cc(OC)c(F)c(N2Cc3cnc4[nH]c(CN5CCC(C#N)CC5)cc4c3N(C)C2=O)c1F [Example 132, 1-{[3-(2,6-difluoro-3,5-dimethoxyphenyl)-1-methyl-2-oxo-2,3,4,7-tetrahydro-1H-pyrrolo[3′,2′:5,6]pyrido[4,3-d]pyrimidin-8-yl]methyl}piperidine-4-carbonitrile]",< 0.1 µM,< 0.1 µM,< 0.1 µM
"COc1cc(OC)c(F)c(N2Cc3cnc4[nH]ccc4c3N(c3cccc(C#N)c3)C2=O)c1F [Example 82, 3-[3-(2,6-difluoro-3,5-dimethoxyphenyl)-2-oxo-2,3,4,7-tetrahydro-1H-pyrrolo[3′,2′:5,6]pyrido[4,3-d]pyrimidin-1-yl]benzonitrile]",< 0.1 µM,< 0.1 µM,< 0.1 µM
"COc1cc(OC)c(F)c(N2Cc3cnc4[nH]c(CN5CCOCC5)cc4c3N(c3cccc(F)c3)C2=O)c1F [Example 212, 3-(2,6-difluoro-3,5-dimethoxyphenyl)-1-(3-fluorophenyl)-8-(morpholin-4-ylmethyl)-1,3,4,7-tetrahydro-2H-pyrrolo[3′,2′:5,6]pyrido[4,3-d]pyrimidin-2-one]",< 0.1 µM,< 0.1 µM,< 0.1 µM
"COc1cc(OC)c(Cl)c(N2Cc3cnc4[nH]ncc4c3N(c3cnn(C)c3)C2=O)c1F [Example 145, 3-(2-chloro-6-fluoro-3,5-dimethoxyphenyl)-1-(1-methyl-1H-pyrazol-4-yl)-1,3,4,7-tetrahydro-2H-pyrazolo[4′,3′:5,6]pyrido[4,3-d]pyrimidin-2-one]",< 0.1 µM,< 0.1 µM,< 0.1 µM
"COc1cc(OC)c(F)c(N2Cc3cnc4[nH]c(CCc5ccccn5)cc4c3N(C)C2=O)c1F [Example 140, 3-(2,6-difluoro-3,5-dimethoxyphenyl)-1-methyl-8-(2-pyridin-2-ylethyl)-1,3,4,7-tetrahydro-2H-pyrrolo[3′,2′:5,6]pyrido[4,3-d]pyrimidin-2-one]",< 0.1 µM,< 0.1 µM,< 0.1 µM
"COc1cc(OC)c(F)c(N2Cc3cnc4[nH]ncc4c3N([C@H]3CCCOC3)C2=O)c1F [Example 88, 3-(2,6-difluoro-3,5-dimethoxyphenyl)-1-[(3S)-tetrahydro-2H-pyran-3-yl]-1,3,4,7-tetrahydro-2H-pyrazolo[4′,3′:5,6]pyrido[4,3-d]pyrimidin-2-one]",< 0.1 µM,< 0.1 µM,< 0.1 µM

# Second part, the compound after the results:
IC50 (FGFR2),IC50 (FGFR1),IC50 (FGFR3),SMILES
< 0.1 µM,< 0.1 µM,< 0.1 µM,"COc1cc(OC)cc(N2Cc3cnc4[nH]c(C(=O)N5CCC(O)C5)cc4c3N(C)C2=O)c1 (stereo not drawn) [Example 21, 3-(3,5-Dimethoxyphenyl)-8-[(3-hydroxypyrrolidin-1-yl)carbonyl]-1-methyl-1,3,4,7-tetrahydro-2H-pyrrolo[3′,2′:5,6]pyrido[4,3-d]pyrimidin-2-one]"
< 0.1 µM,< 0.1 µM,< 0.1 µM,"COc1cc(OC)c(F)c(N2Cc3cnc4[nH]c(CCN5CCN(C)CC5)cc4c3N(c3cccc(F)c3F)C2=O)c1F [Example 223, 3-(2,6-difluoro-3,5-dimethoxyphenyl)-1-(2,3-difluorophenyl)-8-[2-(4-methylpiperazin-1-yl)ethyl]-1,3,4,7-tetrahydro-2H-pyrrolo[3′,2′:5,6]pyrido[4,3-d]pyrimidin-2-one]"
< 0.1 µM,< 0.1 µM,< 0.1 µM,"COc1cc(OC)c(F)c(N2Cc3cnc4[nH]ncc4c3N(CCc3cnccn3)C2=O)c1F [Example 168, 3-(2,6-Difluoro-3,5-dimethoxyphenyl)-1-(2-pyrazin-2-ylethyl)-1,3,4,7-tetrahydro-2H-pyrazolo[4′,3′:5,6]pyrido[4,3-d]pyrimidin-2-one]"
< 0.1 µM,< 0.1 µM,< 0.1 µM,"COc1cc(OC)c(F)c(N2Cc3cnc4[nH]c(CN5CC[C@H](N(C)C)C5)cc4c3C(C)(C)C2=O)c1F [Example 156, 7-(2,6-difluoro-3,5-dimethoxyphenyl)-2-{[(3S)-3-(dimethylamino)pyrrolidin-1-yl]methyl}-9,9-dimethyl-3,6,7,9-tetrahydro-8H-pyrrolo[2,3-c]-2,7-naphthyridin-8-one]"
< 0.1 µM,< 0.1 µM,< 0.1 µM,"COc1cc(OC)c(F)c(N2Cc3cnc4[nH]c(CN5CCC(F)(F)CC5)cc4c3N(C)C2=O)c1F [Example 112, 3-(2,6-difluoro-3,5-dimethoxyphenyl)-8-[(4,4-difluoropiperidin-1-yl)methyl]-1-methyl-1,3,4,7-tetrahydro-2H-pyrrolo[3′,2′:5,6]pyrido[4,3-d]pyrimidin-2-one]"
< 0.1 µM,< 0.1 µM,< 0.1 µM,"COc1cc(OC)c(F)c(N2Cc3cnc4[nH]c(CN5CCOCC5)cc4c3N(CCO)C2=O)c1F [Example 221, 3-(2,6-difluoro-3,5-dimethoxyphenyl)-1-(2-hydroxyethyl)-8-(morpholin-4-ylmethyl)-1,3,4,7-tetrahydro-2H-pyrrolo[3′,2′:5,6]pyrido[4,3-d]pyrimidin-2-one]"
< 0.1 µM,< 0.1 µM,< 0.1 µM,"CCNC(=O)c1cccc(N2C(=O)N(c3c(F)c(OC)cc(OC)c3F)Cc3cnc4[nH]ncc4c32)c1F [Example 201, 3-[3-(2,6-difluoro-3,5-dimethoxyphenyl)-2-oxo-2,3,4,7-tetrahydro-1H-pyrazolo[4′,3′:5,6]pyrido[4,3-d]pyrimidin-1-yl]-N-ethyl-2-fluorobenzamide]"
< 0.1 µM,< 0.1 µM,< 0.1 µM,"COc1cc(OC)c(F)c(N2Cc3cnc4[nH]ccc4c3N(c3cccnn3)C2=O)c1F [Example 109, 3-(2,6-difluoro-3,5-dimethoxyphenyl)-1-pyridazin-3-yl-1,3,4,7-tetrahydro-2H-pyrrolo[3′,2′:5,6]pyrido[4,3-d]pyrimidin-2-one]"
